Structures are written as SMILES. “Also recorded” adds a separate entry of the source. Read-outs that look alike come from different tables or passages of the source.

This note sets out measurements from patent publication US11076597B2, “High stress resistant plant growth regulator and preparation method and use thereof” (SHANGHAI INSTITUTES FOR BIOLOGICAL SCIENCES, CHINESE …, priority 2015, dated 2021).

In assay [1] the target is T1, PYL2 receptor-HAB1 protein phosphatase complex (Arabidopsis thaliana, UniProt O80992).
T1 construct: made in house; host or cells: E. coli BL21 (DE3)
T1 sequence (O80992 14-188): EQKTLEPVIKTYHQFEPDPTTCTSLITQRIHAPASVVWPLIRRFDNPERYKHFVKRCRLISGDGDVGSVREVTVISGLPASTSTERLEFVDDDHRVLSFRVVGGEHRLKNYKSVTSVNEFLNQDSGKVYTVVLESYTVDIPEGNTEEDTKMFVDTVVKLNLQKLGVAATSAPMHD
T1 sequence (Q9CAJ0 172-511 partner limits assumed): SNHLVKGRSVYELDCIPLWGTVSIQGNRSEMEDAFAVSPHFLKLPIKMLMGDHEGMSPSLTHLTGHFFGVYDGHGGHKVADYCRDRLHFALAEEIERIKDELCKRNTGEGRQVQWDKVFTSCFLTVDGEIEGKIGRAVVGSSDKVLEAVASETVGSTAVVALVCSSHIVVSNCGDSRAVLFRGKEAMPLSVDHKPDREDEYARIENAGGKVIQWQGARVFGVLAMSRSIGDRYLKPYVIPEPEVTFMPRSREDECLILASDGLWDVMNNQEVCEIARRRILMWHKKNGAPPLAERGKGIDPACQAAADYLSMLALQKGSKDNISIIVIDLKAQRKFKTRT
In words: AlphaScreen assay, PYL2 receptor binding to HAB1. It is filed as biochemical. The following applies: fraction of the EC50 of ABA; FIG. 2c, 2e-2g. Here is the method:
(§1) The AlphaScreen kit (available from Perkin Elmer) was used, and the method was as follows: a 10× buffer (50 mM MOPS, pH 7.4, 50 mM NaF, 50 mM CHAPS, 0.1 mg/ml bovine serum albumin) diluted at 1:10, each of 100 nM HAB1 with Biotin tag sequence and PYR1/PYL1/PYL2/PYL7/GmPYL6/OsPYL2 protein with dual tags of 6×His and SUMO sequences, corresponding concentrations of (+)-ABA/0224/0304/0706/0708/0713/0715/0428/NC0F4, and 5 μg/ml donor beads and acceptor beads (available from Perkin Elmer) were contained in 150 μl of experimental system. After incubating for 1.5 hours at room temperature in the dark, it was placed into an Envision Plate Reader (available from Perkin Elmer) under the programmed AlphaScreen procedure for readings.
(§2) AlphaScreen technology was used to test the ability of the compounds of the present invention to promote PYL receptor binding to PP2C protein phosphatase (HAB1).

For assay [2], the target named is T2, PYL2 receptor-HAB1 complex (Arabidopsis thaliana, UniProt O80992).
T2 construct: made in house; host or cells: E. coli BL21 (DE3)
T2 sequence (O80992 14-188): T1 sequence (O80992 14-188)
T2 sequence (Q9CAJ0 172-511 partner limits assumed): T1 sequence (Q9CAJ0 172-511 partner limits assumed)
In words: HAB1 phosphatase activity assay (SnRK2.6 phosphorylated polypeptide as substrate). It is filed as biochemical. The following applies: FIG. 1a-1g; 100 nM HAB1, 500 nM PYL2. The procedure: 50 mM imidazole, pH 7.2, 5 mM MgCl2, 0.1% β-mercaptoethanol, 0.5 μg·ml^−1 BSA, 100 nM HAB1 protein with a Biotin tag sequence, 500 nM PYL2 receptor protein with 6×His-SUMO dual tag sequence and the corresponding concentration of (+)-ABA/0224/0304/0706/0708/0713/0715/1028c/0428/1022B/NC0F4 were contained in the reaction system. The reaction system was incubated at room temperature for 30 minutes, followed by a further reaction for 30 minutes after adding an 11-amino acid phosphorylated polypeptide as a substrate. The phosphorylated polypeptide is amino acid 170-180 of SnRK2.6 protein kinase, wherein phosphorylated serine at position 175 (with a sequence of HSQPKpSTVGTP, purchased from Kingsley Company) was a known HAB1 dephosphorylation target site. After 30 minutes, chromogenic reagent (purchased from BioVision) was added and the absorbance at 650 nm was read on a microplate reader (Molecular Devices).

Assay [3] concerns the target T1, PYL2 receptor-HAB1 protein phosphatase complex. Kind of assay: AlphaScreen assay: promotion of PYL2 receptor binding to PP2C protein phosphatase HAB1. The following applies: 6×His-SUMO-tagged PYL2 (aa 14-188), Biotin-tagged HAB1 (aa 172-511), 100 nM each, pH 7.4, 1.5 h room temperature, read-out: EC50. From the text: (§3) The construction method of recombinant plasmids for the Arabidopsis thaliana genes PYL1 (amino acid sequence 36-211), PYL2 (amino acid sequence 14-188) with dual tags of 6×His and SUMO sequence and the Arabidopsis thaliana gene HAB1 (amino acid sequence 172-511) with the Biotin tag sequence is described in detail in “A gate-latch-lock mechanism for hormone signaling by abscisic acid receptors” (Nature, Vol 462, 2009). The construction method of recombinant plasmids for PYR1 and PYL7 (whole gene coding sequence) and Soybean GmPYL6 and rice OsPYL2 with dual tags of 6×His and SUMO sequence is the same as that for Arabidopsis PYL2.
(§4) The above recombinant plasmid is transformed into competent cell of E. coli BL21 (DE3) (purchased from NEB company), and inoculated into 200 ml of LB liquid medium containing Amp resistance (purchased from OXOID company) and cultured overnight at 37° C. at 200 rpm; and inoculated into 2 L of LB liquid medium containing Amp resistance at a ratio of 1:50-1:100 for an extended culture, and cultured at 37° C., 200 rpm for 3-4 hours, and at a low temperature of 16° C. until OD600 is about 0.8-1.0. Recombinant plasmids for PYR1/PYL1/PYL2/PYL7/GmPYL6/OsPYL2 with dual tags of 6×His and SUMO sequence were induced overnight with 100 μM of IPTG while HAB1 recombinant plasmid with the Biotin tag sequence was induced simultaneously with 100 μM of IPTG and 40 μM of biotin.
(§5) After 16 hours of induction, the bacterial solution was centrifuged at 4000 rpm for 20 minutes at 4° C. in a low-speed high-capacity centrifuge, and the bacteria cells were collected. Bacteria cells were resuspended in 50 ml of extraction buffer (containing 20 mM Tris, pH 8.0, 200 mM NaCl and 10% (v/v) glycerol) for per 2 L of bacterial solution and then subjected to pressure-breaking at […] and 4° C. for 3-5 times. The broken cells were subjected to ultracentrifugation, centrifuged at 16000 rpm for 30 minutes, and this process was repeated twice. The supernatant was collected and subjected to an affinity chromatography column.
(§6) For PYR/PYL proteins with dual tags of 6×His and SUMO sequences, 50 ml of affinity chromatography Ni column (50 ml Ni-NTA column, available from GE) was used. Firstly, the column was equilibrated with 600 ml of 10% buffer B (containing 20 mM Tris, PH 8.0, 200 mM NaCl, 500 mM imidazole and 10% glycerol), and then eluted with 200 ml of 50% buffer B and finally eluted with 100 ml of 100% buffer B. Proteins for crystal analysis were mixed with ulp1 enzyme at a molar ratio of 1000:1 for enzymatic dialysis overnight. The digested proteins were subjected to affinity chromatography on a Ni column once more. The collected solution was subjected to a HiLoad 26/60 Superdex200 gel filtration column (commercially available from GE) and eluted with an elution solution (containing 25 mM Tris, pH 8.0, 200 mM ammonium acetate, 1 mM dithiotreitol and 1 mM EDTA) to further separate and purify the protein.
For a HAB1 protein with a Biotin tag sequence, it was subjected to a 50 ml MBP affinity column (available from GE). The column was firstly equilibrated with 600 ml of 10% buffer C (containing 20 mM Tris, pH 8.0, 200 mM NaCl, 10 mM Maltose and 10% Glycerol), and eluted with 200 ml of 50% buffer C and finally eluted with 100 ml of 100% buffer C. The collection solution was subjected to a HiLoad 26/60 Superdex200 gel filtration column and eluted with an elution solution (containing 20 mM Tris, pH 8.0, 200 mM NaCl and 10% Glycerol) to further separate and purify the protein. […]

Assay [4] deals with ABA-induced environmental stress-related gene (COR15a, COR47, RAB18 and RD29b). In words: Gene expression analysis (fluorescence quantitative PCR). Conditions: 10 μM, 6 hours, 10-day-aged seedlings; FIG. 10. It is filed as in vivo, Arabidopsis thaliana (Col-0). Here is the method:
The whole plant or leaves were taken, and RNA extraction was carried out by using conventional methods. After reverse transcription, the fluorescence quantitative PCR was carried out. Three biological samples were taken for each treatment which was performed twice. The ACT7 gene was used as a reference gene.

Assay [5] addresses T3, PYR1 receptor-HAB1 protein phosphatase complex (Arabidopsis thaliana, UniProt O49686).
T3 construct: made in house; host or cells: E. coli BL21 (DE3)
T3 sequence (O49686 1-191): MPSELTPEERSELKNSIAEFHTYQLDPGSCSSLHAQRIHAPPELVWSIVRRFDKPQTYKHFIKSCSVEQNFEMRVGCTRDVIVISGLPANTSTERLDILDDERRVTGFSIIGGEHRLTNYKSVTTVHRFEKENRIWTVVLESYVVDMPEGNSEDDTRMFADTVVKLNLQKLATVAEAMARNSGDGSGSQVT
T3 sequence (Q9CAJ0 172-511 partner limits assumed): T1 sequence (Q9CAJ0 172-511 partner limits assumed)
Kind of assay: AlphaScreen assay, PYR1 receptor binding to HAB1. It is filed as biochemical. Conditions: fraction of the EC50 of ABA; FIG. 2a, 2h. Here is the method: as §1, §2
In general terms: Bead proximity is the source of the signal in Alpha formats.

Assay [6] addresses T3, PYR1 receptor-HAB1 protein phosphatase complex. In words: AlphaScreen assay: promotion of PYR1 receptor binding to PP2C protein phosphatase HAB1. Conditions: FIG. 2h; 6×His-SUMO-tagged PYR1 (whole coding sequence), Biotin-tagged HAB1 (aa 172-511), 100 nM each; pH 7.4; 1.5 h room temperature; read-out: EC50.
Description: as §3, §4, §5, §6
For a HAB1 protein with a Biotin tag sequence, it was subjected to a 50 ml MBP affinity column (available from GE). The column was firstly equilibrated with 600 ml of 10% buffer C (containing 20 mM Tris, pH 8.0, 200 mM NaCl, 10 mM Maltose and 10% Glycerol), and eluted with 200 ml of 50% buffer C and finally eluted with 100 ml of 100% buffer C. […]

Usually EC50 stands for the concentration at which the effect is half-maximal. In the case of `Cc1c(F)c(F)c(CS(=O)(=O)Nc2ccc3c(c2)C(C)OC(=O)N3C(C)C)c(F)c1F` (stereo not drawn) [Compound 0708], in assay [1], the “EC50 value with PYL2 receptor-HAB1 complex as fraction of that of ABA” value is “⅕-⅛”. For the same compound, in assay [2], the “inhibition of HAB1 protein phosphatase activity by promoting binding between PYL2 receptor and HAB1” value (“inhibition” below) is given as “inhibiting the activity of protein phosphatase HAB1; also recorded: inhibiting the dephosphorylation effect of HAB1 on SnRK2.6 phosphorylated polypeptide”. Moreover, in assay [3] (FIG. 2e), the EC50 was 136 nM.
Taken in the same sequence, the figures for `Cc1c(F)c(F)c(CS(=O)(=O)Nc2ccc3c(c2)C(C)OC(=O)N3CC(C)C)c(F)c1F` (stereo not drawn) [Compound 0713] were “⅕-⅛”, “inhibiting the activity of protein phosphatase HAB1; also recorded: inhibiting the dephosphorylation effect of HAB1 on SnRK2.6 phosphorylated polypeptide” and 181 nM.
`CCCn1c(=O)ccc2cc(NS(=O)(=O)Cc3ccc(C)cc3)ccc21` [Compound 1022B]: the “EC50 value with PYL2 receptor-HAB1 complex as fraction of that of ABA” value in assay [1] is given as “one order of magnitude lower than that of ABA”. Besides, the “inhibition” value in assay [2] is given as “inhibiting the activity of protein phosphatase HAB1; also recorded: inhibiting the dephosphorylation effect of HAB1 on SnRK2.6 phosphorylated polypeptide”. The EC50 in assay [3] (FIG. 2g) was 180 nM. Further, in assay [4], the “expression level of COR15a, COR47, RAB18 and RD29b” value was “all higher than those of ABA; also recorded: significantly increased”.
For `CCCN1C(=O)NC(C)c2cc(NS(=O)(=O)Cc3c(F)c(F)c(C)c(F)c3F)ccc21` (stereo not drawn) [Compound 1028c], in assay [2], the “inhibition” value is listed as “inhibiting the activity of protein phosphatase HAB1; also recorded: inhibiting the dephosphorylation effect of HAB1 on SnRK2.6 phosphorylated polypeptide”.
Take `CCCN1C(=O)NCc2cc(NS(=O)(=O)Cc3c(F)c(F)c(C)c(F)c3F)ccc21` [Compound NC0F4]: the “EC50 value with PYL2 receptor-HAB1 complex as fraction of that of ABA” value in assay [1] is “better PYL2 receptor affinity over ABA”. Further, in assay [2], the “inhibition” value is “inhibiting the activity of protein phosphatase HAB1; also recorded: inhibiting the dephosphorylation effect of HAB1 on SnRK2.6 phosphorylated polypeptide”. Besides, the “EC50 value with PYR1 receptor-HAB1 complex as fraction of that of ABA” value in assay [5] is “about 1/11”. Besides, in assay [6], the EC50 turned out to be 373 nM.
